Experimental data reported in patent US9290485B2, “N-((6-amino-pyridin-3-yl)methyl)-heteroaryl-carboxamides” (NOVARTIS AG, priority 2010, dated 2016).

Target: human plasma kallikrein (Homo sapiens (Human), UniProt P03952)
Settings: human plasma kallikrein 25 pM, substrate 0.5 uM, 1 hour pre-incubation at room temperature, read at t=60 min
Method: All other chemicals were of analytical grade.
A stock solution of 0.17 mg/ml deinonized water was stored at −80° C. Enzymatic reactions were conducted in ‘assay buffer’, comprising 50 mM Hepes/NaOH at pH 7.8, 150 mM NaCl, 1 mM EDTA and 0.05% (w/v) CHAPS.
Both, enzyme and substrate were diluted in assay buffer.
All protein and peptide containing solutions were handled in siliconized tubes (Life Systems Design, Merenschwand, Switzerland). […] Plate measurements were conducted by the means of a Safire2 reader (TECAN, Maennedorf, Switzerland). The Safire2 is a monochomator-based instrument and wavelengths of 485 nm and 535 nm were taken for fluorescence excitation and emission acquisition, respectively. The bandwidths were set to 10 nm in both the excitation and the emission path. The fluorescence in each well was excited by three flashes per measurement.
The test compound was dissolved in 90% (v/v) DMSO/water. For the assays, 250 nL of the 90% (v/v) DMSO/water solution or compound solution were added per well, followed by the addition of 12.5 μl protease solution (protease in assay buffer). […] After 1 hour of pre-incubation at room temperature, the reactions were started by the addition of 12.5 μl substrate solution (in assay buffer, final assay concentration was 0.5 uM). After the addition of the substrate solution, the final DMSO concentration in the assay was 0.9% (v/v). […] The IC50 value was calculated from the plot of percentage of inhibition vs. inhibitor concentration by a logistics fit according to the following equation: y=A2+(A1−A2)/(1+(x/IC50)^p) where y is the %-inhibition at the inhibitor concentration, x. A1 is the lowest inhibition value, i.e. 0%, and A2 the maximum inhibition value, i.e. 100%. The exponent, p, is the Hill coefficient. The curve fitting was conducted with the non-linear regression routine of the analysis software Origin 7.55R6 (OriginLab Corporation).

Chain of human plasma kallikrein (P03952 whole entry, looked up): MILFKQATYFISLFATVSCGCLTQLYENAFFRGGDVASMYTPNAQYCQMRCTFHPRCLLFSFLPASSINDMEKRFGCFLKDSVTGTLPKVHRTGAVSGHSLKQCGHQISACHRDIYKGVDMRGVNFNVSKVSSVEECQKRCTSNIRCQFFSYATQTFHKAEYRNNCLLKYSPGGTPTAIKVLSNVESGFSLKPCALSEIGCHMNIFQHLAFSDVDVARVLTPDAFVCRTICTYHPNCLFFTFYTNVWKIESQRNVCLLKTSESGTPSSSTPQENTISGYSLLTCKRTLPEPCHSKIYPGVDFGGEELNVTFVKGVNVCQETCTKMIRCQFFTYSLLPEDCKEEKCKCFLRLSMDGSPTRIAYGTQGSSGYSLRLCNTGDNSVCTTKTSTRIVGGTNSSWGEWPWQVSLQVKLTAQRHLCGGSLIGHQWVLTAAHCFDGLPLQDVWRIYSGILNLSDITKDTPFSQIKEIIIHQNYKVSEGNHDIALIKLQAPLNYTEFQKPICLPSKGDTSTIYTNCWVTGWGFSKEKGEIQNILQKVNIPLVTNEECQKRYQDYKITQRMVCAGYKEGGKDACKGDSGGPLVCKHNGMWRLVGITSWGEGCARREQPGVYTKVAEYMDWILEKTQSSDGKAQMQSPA
Chain of human plasma kallikrein (P03952 whole entry partner, looked up): as the sequence (P03952 whole entry, looked up) above

Compound	IC50
Cc1cc(N)nc(C)c1CNC(=O)c1sc(Cc2ccccc2)nc1C [Example 55, N-((6-amino-2,4-dimethylpyridin-3-yl)methyl)-2-benzyl-4-methylthiazole-5-carboxamide]	6300 nM
Cc1cc(N)nc(C)c1CNC(=O)c1cnn(Cc2ccc3c(c2)nnn3C)c1 [Example 101, N-((6-amino-2,4-dimethylpyridin-3-yl)methyl)-1-((1-methyl-1H-benzo[d][1,2,3]triazol-5-yl)methyl)-1H-pyrazole-4-carboxamide]	70 nM
Cc1cc(N)nc(C)c1CNC(=O)c1cnn(Cc2csc(C(C)(C)C)n2)c1 [Example 28, N-((6-amino-2,4-dimethylpyridin-3-yl)methyl)-1-((2-tert-butylthiazol-4-yl)methyl)-1H-pyrazole-4-carboxamide]	343 nM
Cc1cc(N)nc(C)c1CNC(=O)c1cnn(Cc2ccc3c(c2)N(C)CCC3)c1 [Example 152, N-((6-Amino-2,4-dimethylpyridin-3-yl)methyl)-1-((1-methyl-1,2,3,4-tetrahydroquinolin-7-yl)methyl)-1H-pyrazole-4-carboxamide]	4 nM
Cc1cc(N)nc(C)c1CNC(=O)c1cnn(Cc2cccc(S(=O)(=O)N3CCOCC3)c2)c1 [Example 116, N-((6-amino-2,4-dimethylpyridin-3-yl)methyl)-1-(3-(morpholinosulfonyl)benzyl)-1H-pyrazole-4-carboxamide]	197 nM
Cc1cc(N)nc(C)c1CNC(=O)c1ncn(Cc2ccc(-c3ccccc3)cc2)n1 [Example 61, N-((6-amino-2,4-dimethylpyridin-3-yl)methyl)-1-(biphenyl-4-ylmethyl)-1H-1,2,4-triazole-3-carboxamide]	46 nM
Cc1cc(N)nc(C)c1CNC(=O)c1ncn(Cc2ccccc2)n1 [Example 56, N-((6-amino-2,4-dimethylpyridin-3-yl)methyl)-1-benzyl-1H-1,2,4-triazole-3-carboxamide]	4400 nM
Cc1ccc2cc(Cn3cc(C(=O)NCc4c(Cl)cc(N)nc4C)nn3)ccc2n1 [Example 175, N-((6-Amino-4-chloro-2-methylpyridin-3-yl)methyl)-1-((2-methylquinolin-6-yl)methyl)-1H-1,2,3-triazole-4-carboxamide]	61 nM
Cc1cc(N)nc(C)c1CNC(=O)c1cnn(Cc2cccc3c2OCCCO3)c1 [Example 95, N-((6-amino-2,4-dimethylpyridin-3-yl)methyl)-1-((3,4-dihydro-2H-benzo[b][1,4]dioxepin-6-yl)methyl)-1H-pyrazole-4-carboxamide]	485 nM
Cc1cc(N)nc(C)c1CNC(=O)c1ncn(Cc2ccc(-n3cccn3)cc2)n1 [Example 66, 1-(4-(1H-pyrazol-1-yl)benzyl)-N-((6-amino-2,4-dimethylpyridin-3-yl)methyl)-1H-1,2,4-triazole-3-carboxamide]	325 nM
Cc1cc(N)nc(C)c1CNC(=O)c1cnn(Cc2csc(Nc3ccccc3)n2)c1 [Example 25, N-((6-amino-2,4-dimethylpyridin-3-yl)methyl)-1-((2-(phenylamino)thiazol-4-yl)methyl)-1H-pyrazole-4-carboxamide]	109 nM
Cc1cc(N)nc(C)c1CNC(=O)c1cn(Cc2c(F)cccc2F)nn1 [Example 53, N-((6-amino-2,4-dimethylpyridin-3-yl)methyl)-1-(2,6-difluorobenzyl)-1H-1,2,3-triazole-4-carboxamide]	3600 nM
Cc1nc(N)cc(OC2CCCCC2)c1CNC(=O)c1cnn(Cc2ccccc2)c1 [Example 15, N-((6-amino-4-(cyclohexyloxy)-2-methylpyridin-3-yl)methyl)-1-benzyl-1H-pyrazole-4-carboxamide]	230 nM
Cc1cc(N)nc(C)c1CNC(=O)c1cnn(Cc2cc(C(F)(F)F)c3cc(F)ccc3n2)c1 [Example 162, N-((6-amino-2,4-dimethylpyridin-3-yl)methyl)-1-((6-fluoro-4-(trifluoromethyl)quinolin-2-yl)methyl)-1H-pyrazole-4-carboxamide]	5 nM
Cc1nc(N)cc(OC(F)F)c1CNC(=O)c1cnn(Cc2ccccc2)c1 [Example 180, N-((6-Amino-4-(difluoromethoxy)-2-methylpyridin-3-yl)methyl)-1-benzyl-1H-pyrazole-4-carboxamide]	> 100000 nM
Cc1cc(N)nc(C)c1CNC(=O)c1cnn(CC2CCCCC2)c1 [Example 88, N-((6-amino-2,4-dimethylpyridin-3-yl)methyl)-1-(cyclohexylmethyl)-1H-pyrazole-4-carboxamide]	1800 nM
Cc1cc(N)nc(C)c1CNC(=O)c1cc(C)n(S(=O)(=O)c2ccccc2)c1C [Example 72, N-((6-amino-2,4-dimethylpyridin-3-yl)methyl)-2,5-dimethyl-1-(Phenylsulfonyl)-1H-pyrrole-3-carboxamide]	937 nM
Cc1cc(N)nc(C)c1CNC(=O)c1cnn(Cc2cccc(C(=O)Nc3ccccc3)c2)c1 [Example 117, N-((6-amino-2,4-dimethylpyridin-3-yl)methyl)-1-(3-(phenylcarbamoyl)benzyl)-1H-pyrazole-4-carboxamide]	152 nM

Compound	IC50
Cc1nc(N)cc(Cl)c1CNC(=O)c1cnn(Cc2ccccc2)c1 [Example 144, N-((6-amino-4-chloro-2-methylpyridin-3-yl)methyl]-1-benzyl-1H-pyrazole-4-carboxamide]	42400 nM
COc1ccc(Cc2nc(C(=O)NCc3c(C)cc(N)nc3C)co2)cc1 [Example 8, N-((6-amino-2,4-dimethylpyridin-3-yl)methyl)-2-(4-methoxybenzyl)oxazole-4-carboxamide]	2640 nM
Cc1cc(N)nc(C)c1CNC(=O)c1cn(Cc2ccccc2)nn1 [Example 21, N-((6-amino-2,4-dimethylpyridin-3-yl)methyl)-1-benzyl-1H-1,2,3-triazole-4-carboxamide]	2540 nM
Cc1cc(N)nc(C)c1CNC(=O)c1ccn(S(=O)(=O)c2ccccc2)c1C [Example 176, N-((6-Amino-2,4-dimethylpyridin-3-yl)methyl)-2-methyl-1-(phenylsulfonyl)-1H-pyrrole-3-carboxamide]	45000 nM
Cc1cc(N)nc(C)c1CNC(=O)c1ncn(Cc2cccc(N3CCCC3)c2)n1 [Example 68, N-((6-amino-2,4-dimethylpyridin-3-yl)methyl)-1-(3-(pyrrolidin-1-yl)benzyl)-1H-1,2,4-triazole-3-carboxamide]	34 nM
Cc1cc(N)nc(C)c1CNC(=O)c1cn(Cc2cccc(C#N)c2)nn1 [Example 54, N-((6-amino-2,4-dimethylpyridin-3-yl)methyl)-1-(3-cyanobenzyl)-1H-1,2,3-triazole-4-carboxamide]	1800 nM
Cc1nc(Cn2cc(C(=O)NCc3c(C)cc(N)nc3C)cn2)cs1 [Example 97, N-((6-amino-2,4-dimethylpyridin-3-yl)methyl)-1-((2-methylthiazol-4-yl)methyl)-1H-pyrazole-4-carboxamide]	1900 nM
Cc1cc(N)nc(C)c1CNC(=O)c1cnn(Cc2ncoc2-c2ccccc2)c1 [Example 35, N-((6-amino-2,4-dimethylpyridin-3-yl)methyl)-1-((5-phenyloxazol-4-yl)methyl)-1H-pyrazole-4-carboxamide]	3900 nM
Cc1cc(C)n(-c2ccc(S(=O)(=O)n3ccc(C(=O)NCc4c(C)cc(N)nc4C)c3)cc2)n1 [Example 133, N-((6-amino-2,4-dimethylpyridin-3-yl)methyl)-1-(4-(3,5-dimethyl-1H-pyrazol-1-yl)phenylsulfonyl)-1H-pyrrole-3-carboxamide]	196 nM
Cc1nc(N)cc(OCc2ncco2)c1CNC(=O)c1cn(Cc2ccccc2)nn1 [Example 137, N-((6-amino-2-methyl-4-(oxazol-2-ylmethoxy)pyridin-3-yl)methyl)-1-benzyl-1H-1,2,3-triazole-4-carboxamide]	127 nM
Cc1cc(N)nc(C)c1CNC(=O)c1cn(Cc2ccc(Cn3ccnc3)cc2)nn1 [Example 45, 1-(4-((1H-imidazol-1-yl)methyl)benzyl)-N-((6-amino-2,4-dimethylpyridin-3-yl)methyl)-1H-1,2,3-triazole-4-carboxamide]	45 nM
Cc1cc(N)nc(C)c1CNC(=O)c1cnn(Cc2ccc3[nH]c(C)c(C)c3c2)c1 [Example 75, N-((6-amino-2,4-dimethylpyridin-3-yl)methyl)-1-((2,3-dimethyl-1H-indol-5-yl)methyl)-1H-pyrazole-4-carboxamide]	3.1 nM
Cc1nc(N)ccc1CNC(=O)c1cnn(Cc2ccccc2)c1 [Example 85, N-((6-amino-2-methylpyridin-3-yl)methyl)-1-benzyl-1H-pyrazole-4-carboxamide]	4100 nM
Cc1cc(N)nc(C)c1CNC(=O)c1cnn(C(CO)c2ccccc2)c1 (stereo not drawn) [Example 11, N-((6-amino-2,4-dimethylpyridin-3-yl)methyl)-1-(2-hydroxy-1-phenylethyl)-1H-pyrazole-4-carboxamide]	12200 nM
Cc1cc(N)nc(C)c1CNC(=O)c1cn(Cc2ccc(-n3cccn3)cc2)cn1 [Example 24, 1-(4-(1H-pyrazol-1-yl)benzyl)-N-((6-amino-2,4-dimethylpyridin-3-yl)methyl)-1H-imidazole-4-carboxamide]	238 nM
Cc1nc(N)cc(OCC(N)=O)c1CNC(=O)c1cnn(Cc2ccccc2)c1 [Example 77, N-((6-amino-4-(2-amino-2-oxoethoxy)-2-methylpyridin-3-yl)methyl)-1-benzyl-1H-pyrazole-4-carboxamide]	72 nM
Cc1cc(N)nc(C)c1CNC(=O)c1cnn(Cc2sc(-c3ccccc3)nc2C)c1 [Example 26, N-((6-amino-2,4-dimethylpyridin-3-yl)methyl)-1-((4-methyl-2-phenylthiazol-5-yl)methyl)-1H-pyrazole-4-carboxamide]	19 nM
Cc1cc(N)nc(C)c1CNC(=O)c1cnn(Cc2ccc(C(=O)NC3CCS(=O)(=O)C3)cc2)c1 (stereo not drawn) [Example 111, 1-[4-(1,1-Dioxo-tetrahydro-1lambda*6*-thiophen-3-ylcarbamoyl)-benzyl]-1H-pyrazole-4-carboxylic acid (6-amino-2,4-dimethyl-pyridin-3-ylmethyl)-amide]	2100 nM
